The term EC50 denotes the concentration that produces a half-maximal response. A lower EC50 goes with higher potency in that assay. The term IC50 denotes the concentration that gives 50% inhibition. Read a low IC50 as greater potency in that assay.

SMILES strings stand for the structures.

Experimental findings from ChEMBL document CHEMBL1128085, “Asymmetric synthesis of FR165914: A novel 3-adrenergic agonist with a benzocycloheptene structure” (Bioorg Med Chem Lett, 1995) are described below.

Assay [1] concerns the target Beta-1 adrenergic receptor (Cavia porcellus, UniProt B0FL73). The experiment in a line: Agonistic activity against Beta-1 adrenergic receptor in guinea pig atrium. The format is functional, tissue-based, Cardiac atrium.
Assay [2] has as its target Beta-3 adrenergic receptor (Rattus norvegicus, UniProt P26255). Description: Agonistic activity against Beta-3 adrenergic receptor in rat colon. Format: functional.

Beta-1 adrenergic receptor, sequence (B0FL73 whole entry): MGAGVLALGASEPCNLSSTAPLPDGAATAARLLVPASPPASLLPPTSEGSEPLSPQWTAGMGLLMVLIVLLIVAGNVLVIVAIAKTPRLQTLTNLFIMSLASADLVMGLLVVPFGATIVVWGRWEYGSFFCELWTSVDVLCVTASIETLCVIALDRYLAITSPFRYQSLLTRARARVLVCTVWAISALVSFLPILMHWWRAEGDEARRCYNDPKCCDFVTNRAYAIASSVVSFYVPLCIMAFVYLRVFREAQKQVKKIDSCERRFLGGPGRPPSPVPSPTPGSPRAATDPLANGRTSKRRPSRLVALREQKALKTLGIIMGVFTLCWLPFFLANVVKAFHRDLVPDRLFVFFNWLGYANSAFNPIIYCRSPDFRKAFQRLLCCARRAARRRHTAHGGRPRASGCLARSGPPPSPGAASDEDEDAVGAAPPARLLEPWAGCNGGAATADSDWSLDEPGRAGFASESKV
Beta-3 adrenergic receptor, sequence (P26255 whole entry): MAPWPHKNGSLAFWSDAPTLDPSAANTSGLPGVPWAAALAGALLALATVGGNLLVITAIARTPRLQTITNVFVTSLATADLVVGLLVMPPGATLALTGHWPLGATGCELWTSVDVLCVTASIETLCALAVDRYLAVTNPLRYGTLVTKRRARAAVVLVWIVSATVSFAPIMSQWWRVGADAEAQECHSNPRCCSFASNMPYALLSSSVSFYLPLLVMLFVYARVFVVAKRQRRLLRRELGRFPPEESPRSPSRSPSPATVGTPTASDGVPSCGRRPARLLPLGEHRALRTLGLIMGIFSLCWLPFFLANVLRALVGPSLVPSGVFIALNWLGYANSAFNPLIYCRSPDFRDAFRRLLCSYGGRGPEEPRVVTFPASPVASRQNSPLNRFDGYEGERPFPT

The compound `O=C(O)C1(C(=O)O)Oc2cc3c(cc2O1)C[C@@H](NC[C@H](O)c1cccc(Cl)c1)CCC3` came in with an EC50 in assay [1] greater than 10000 nM. The IC50 in assay [2] was determined as 6 nM.
